The source made the active and inactive calls. No rule for the calls is given here.
tested on: Clostridioides difficile clinical isolate growth, OD600, 24 h; assay: inhibitors of Clostridioides difficile proliferation – 4-point retest, confirmation (AID 1224921)

Structure (SMILES)	AC50
CNC[C@@H]1OCCCC[C@@H](C)Oc2ccc(NC(=O)Nc3ccc(C(F)(F)F)cc3)cc2C(=O)N([C@@H](C)CO)C[C@@H]1C	17.5 µM
O=C(C[C@H]1CC[C@@H]2[C@H](COC[C@@H](O)CN2C(=O)Nc2ccc(Cl)c(Cl)c2)O1)NCc1ccc(Cl)cc1	3.67 µM
CO[C@@H](CN(C)C(=O)C1CCOCC1)[C@@H](C)CN(C(=O)Nc1ccc(C(F)(F)F)cc1)[C@H](C)CO	6.17 µM
C[C@@H]1CCCCO[C@H](CN(C)CC2CCCCC2)[C@H](C)CN([C@@H](C)CO)C(=O)c2cc(NC(=O)Nc3ccc(C(F)(F)F)cc3)ccc2O1	10.4 µM
CCCNC(=O)C[C@@H]1CC[C@@H]2[C@H](COC[C@H](O)CN2C(=O)Nc2ccc(Cl)c(Cl)c2)O1	3.54 µM
CN(C)CC(=O)N[C@@H]1CC[C@@H](CCNC(=O)Nc2ccc(C(F)(F)F)cc2)O[C@@H]1CO	4.58 µM
O=C(C[C@@H]1CC[C@H]2[C@@H](COC[C@@H](O)CN2C(=O)Nc2ccc(C(F)(F)F)cc2)O1)NCC1CCCCC1	3.56 µM
C[C@@H]1CN([C@H](C)CO)C(=O)c2cccc(NC(=O)Nc3ccc(C(F)(F)F)cc3)c2O[C@@H]1CN(C)Cc1ccc(-c2ccccc2)cc1	18.3 µM
C[C@@H]1CN([C@@H](C)CO)C(=O)Cc2cc(N(C)C)ccc2O[C@H]1CN(C)Cc1ccc(C(F)(F)F)cc1	29.1 µM
C[C@H](CO)N1C[C@H](C)[C@@H](CN(C)Cc2ccccc2)Oc2ccc(NC(=O)Nc3ccc(C(F)(F)F)cc3)cc2CC1=O	31.4 µM
O=C(C[C@H]1CC[C@H]2[C@@H](COC[C@H](O)CN2C(=O)Nc2ccc(Cl)c(Cl)c2)O1)NC1CCC1	2.03 µM
N#C[C@@H]1[C@H](c2ccc(C#Cc3ccc(F)cc3)cc2)[C@@H](CO)N1C(=O)C1CCCC1	> 70 µM (inactive)
CO[C@@H]1CN(C)C(=O)c2cc(NC(=O)Nc3ccc(Cl)c(Cl)c3)ccc2OC[C@H](C)NC[C@H]1C	6.72 µM
O=C(C[C@H]1CC[C@H]2[C@@H](COC[C@@H](O)CN2C(=O)Nc2cc(Cl)cc(Cl)c2)O1)NCC1CC1	10.9 µM
CNC(=O)C[C@H]1CC[C@@H]2[C@H](COC[C@@H](O)CN2C(=O)Nc2ccc(Cl)c(Cl)c2)O1	8.58 µM
O=C(NCC[C@@H]1CC[C@@H](NC(=O)c2cccnc2)[C@H](CO)O1)Nc1ccc(C(F)(F)F)cc1	3.16 µM
COc1ccc(CN(C)C[C@@H]2OCCCC[C@H](C)Oc3ccc(NC(=O)Nc4ccc(C(F)(F)F)cc4)cc3C(=O)N([C@H](C)CO)C[C@H]2C)cc1	3.24 µM
C[C@H](CO)N1C[C@H](C)[C@H](CN(C)CC2CCCCC2)Oc2ccc(NC(=O)Nc3ccc(C(F)(F)F)cc3)cc2C1=O	15.2 µM
O=C(C[C@H]1CC[C@H]2[C@@H](COC[C@H](O)CN2C(=O)Nc2ccc(C(F)(F)F)cc2)O1)NC1Cc2ccccc2C1	1.54 µM
O=C(NCC[C@@H]1CC[C@H](NC(=O)C2CC2)[C@H](CO)O1)Nc1ccc(C(F)(F)F)cc1	4.32 µM
C[C@@H]1CCCCO[C@@H](CN(C)C(=O)CCCN(C)C)[C@H](C)CN([C@H](C)CO)C(=O)c2cc(NC(=O)Nc3ccc(C(F)(F)F)cc3)ccc2O1	7.16 µM
CO[C@H](CN(C)C(=O)C1CCOCC1)[C@H](C)CN(C(=O)Nc1ccc(C(F)(F)F)cc1)[C@H](C)CO	5.96 µM
CC(=O)N[C@H]1CC[C@H](CCNC(=O)Nc2ccc(C(F)(F)F)cc2)O[C@H]1CO	4.52 µM
O=C(C[C@@H]1CC[C@H]2[C@@H](COC[C@@H](O)CN2C(=O)Nc2ccc(Cl)c(Cl)c2)O1)NC1CCC1	3.86 µM

Structure (SMILES)	AC50
C[C@@H]1CN([C@H](C)CO)C(=O)c2cc(NC(=O)Nc3ccc(C(F)(F)F)cc3)ccc2O[C@@H](C)CCCCO[C@H]1CN(C)Cc1ccccc1	6.56 µM
O=C(C[C@H]1CC[C@H]2[C@@H](COC[C@H](O)CN2C(=O)Nc2ccc(Cl)c(Cl)c2)O1)NCc1ccc(F)cc1	2.08 µM
CCC(=O)N[C@H]1CC[C@@H](CCNC(=O)Nc2ccc(C(F)(F)F)cc2)O[C@@H]1CO	2.73 µM
C[C@@H]1CN([C@@H](C)CO)C(=O)c2cc(NC(=O)Nc3ccc(C(F)(F)F)cc3)ccc2O[C@@H](C)CCCCO[C@H]1CN(C)Cc1ccccc1	26.9 µM
C/C=C/c1ccc2c(c1)O[C@H](CN(C)C(=O)c1ccc(F)cc1)[C@H](C)CN([C@H](C)CO)S2(=O)=O	> 60 µM (inactive)
C[C@H](CO)N1C[C@H](C)[C@H](CN(C)C(=O)Nc2ccc(C(F)(F)F)cc2)Oc2c(NC(=O)Nc3ccccc3)cccc2C1=O	> 60 µM (inactive)
C[C@@H]1CN([C@H](C)CO)S(=O)(=O)c2ccc(C#Cc3cccc(F)c3)cc2O[C@H]1CN(C)C	> 60 µM (inactive)
CO[C@@H]1CN(C)C(=O)c2ccc(NC(=O)C3CCOCC3)cc2OC[C@@H](C)N(C(=O)Nc2ccc(C(F)(F)F)cc2)C[C@H]1C	16.1 µM
COc1ccccc1CNC(=O)C[C@@H]1CC[C@@H]2[C@H](COC[C@@H](O)CN2C(=O)Nc2ccc(C(F)(F)F)cc2)O1	1.6 µM
CO[C@H]1CN(C)C(=O)c2cc(NC(C)=O)ccc2OC[C@@H](C)N(Cc2nccs2)C[C@@H]1C	> 60 µM (inactive)
COc1ccc(CN(C)C[C@H]2OCCCC[C@H](C)Oc3ccc(NC(=O)Nc4ccc(C(F)(F)F)cc4)cc3C(=O)N([C@@H](C)CO)C[C@@H]2C)cc1	16.6 µM
CO[C@@H](CN(C)Cc1cc(F)ccc1F)[C@@H](C)CN(C(=O)Nc1ccc(C(F)(F)F)cc1)[C@@H](C)CO	13.1 µM
O=C(C[C@H]1CC[C@@H]2[C@H](COC[C@@H](O)CN2C(=O)Nc2cc(Cl)cc(Cl)c2)O1)N1CCOCC1	15.3 µM
CCC(=O)N[C@@H]1CC[C@@H](CCNC(=O)Nc2ccc(C(F)(F)F)cc2)O[C@@H]1CO	3.9 µM
O=C(NCC[C@H]1CC[C@@H](NC(=O)c2cccnc2)[C@H](CO)O1)Nc1ccc(C(F)(F)F)cc1	2.42 µM
C[C@H]1CCCCO[C@H](CN(C)CC2CC2)[C@@H](C)CN([C@@H](C)CO)C(=O)c2cc(NC(=O)Nc3ccc(C(F)(F)F)cc3)ccc2O1	5.12 µM
COc1cccc(C#Cc2ccc([C@H]3[C@@H](CO)N(C(=O)C4CCCCC4)[C@H]3C#N)cc2)c1	19 µM
CCCNC(=O)C[C@@H]1CC[C@H]2[C@@H](COC[C@@H](O)CN2C(=O)Nc2ccc(Cl)c(Cl)c2)O1	2.59 µM
CO[C@@H](CN(C)C(=O)C1CC1)[C@@H](C)CN(C(=O)Nc1ccc(C(F)(F)F)cc1)[C@@H](C)CO	3.31 µM
CO[C@H](CN(C)C(=O)C1CCOCC1)[C@@H](C)CN(C(=O)Nc1ccc(C(F)(F)F)cc1)[C@H](C)CO	0.831 µM
O=C(C[C@H]1CC[C@H]2[C@@H](COC[C@@H](O)CN2C(=O)Nc2ccc(C(F)(F)F)cc2)O1)NC1Cc2ccccc2C1	7.54 µM
O=C(C[C@H]1CC[C@H]2[C@@H](COC[C@@H](O)CN2C(=O)Nc2ccc(Cl)c(Cl)c2)O1)NC1CCC1	4.29 µM
CO[C@@H]1CN(C)C(=O)c2ccc(NC(=O)Nc3cc(Cl)cc(Cl)c3)cc2OC[C@H](C)NC[C@@H]1C	8.07 µM
O=C(N[C@H]1CC[C@H](CCNS(=O)(=O)c2ccc(Cl)cc2)O[C@H]1CO)c1ccccn1	> 60 µM (inactive)

Structure (SMILES)	AC50
COc1ccccc1CNC(=O)C[C@H]1CC[C@H]2[C@@H](COC[C@H](O)CN2C(=O)Nc2ccc(C(F)(F)F)cc2)O1	12 µM
O=C(NCC[C@H]1CC[C@H](NS(=O)(=O)c2ccc(F)cc2)[C@@H](CO)O1)Nc1ccc(Cl)cc1	16.7 µM
CO[C@H](CN(C)C(=O)C1CC1)[C@@H](C)CN(C(=O)Nc1ccc(C(F)(F)F)cc1)[C@@H](C)CO	6.86 µM
O=C(C[C@H]1CC[C@H]2[C@@H](COC[C@@H](O)CN2C(=O)Nc2ccc(Cl)c(Cl)c2)O1)NCc1ccc(Cl)cc1	1.03 µM
O=C(C[C@@H]1CC[C@H]2[C@@H](COC[C@@H](O)CN2C(=O)Nc2cc(Cl)cc(Cl)c2)O1)N1CCCCC1	6.58 µM
COc1ccccc1S(=O)(=O)N[C@@H]1C=C[C@@H](CC(=O)N2CCCCC2)O[C@H]1CO	> 60 µM (inactive)
O=C(C[C@@H]1CC[C@@H]2[C@H](COC[C@H](O)CN2C(=O)Nc2ccc(C(F)(F)F)cc2)O1)NCCc1ccncc1	3.46 µM
CO[C@H]1CN(C)C(=O)c2cc(NC(=O)Nc3cc(Cl)cc(Cl)c3)ccc2OC[C@@H](C)NC[C@H]1C	9.49 µM
CCCC(=O)Nc1ccc2c(c1)C(=O)N(C)[C@@H]1CC[C@@H](CC(=O)OC)O[C@@H]1CO2	> 60 µM (inactive)
O=C(C[C@@H]1CC[C@H]2[C@@H](COC[C@H](O)CN2C(=O)Nc2ccc(Cl)c(Cl)c2)O1)NCc1ccccc1	3.53 µM
O=C(C[C@@H]1CC[C@@H]2[C@H](COC[C@H](O)CN2C(=O)Nc2cc(Cl)cc(Cl)c2)O1)N1CCCCC1	1.41 µM
O=C(C[C@@H]1CC[C@H]2[C@@H](COC[C@@H](O)CN2C(=O)Nc2cc(Cl)cc(Cl)c2)O1)N1CCOCC1	10.7 µM
O=C(C[C@H]1CC[C@@H]2[C@H](COC[C@@H](O)CN2C(=O)Nc2ccc(Cl)c(Cl)c2)O1)NCc1ccc(Cl)c(Cl)c1	3.34 µM
O=C(C[C@H]1CC[C@@H]2[C@H](COC[C@@H](O)CN2C(=O)Nc2ccc(Cl)c(Cl)c2)O1)NCc1ccc(F)cc1	2.15 µM
C[C@H](NC(=O)C[C@H]1CC[C@@H]2[C@H](COC[C@H](O)CN2C(=O)Nc2cc(Cl)cc(Cl)c2)O1)c1ccccc1	11.5 µM
C[C@@H]1CN([C@@H](C)CO)C(=O)c2cccc(NC(=O)Nc3ccc(C(F)(F)F)cc3)c2O[C@@H]1CN(C)Cc1ccccc1	3.65 µM
CO[C@H]1CN(C)C(=O)c2ccc(NC(=O)c3cccc(F)c3)cc2OC[C@@H](C)N(C(C)=O)C[C@@H]1C	> 60 µM (inactive)
CO[C@@H]1CN(C)C(=O)c2cc(NC(=O)Nc3cc(Cl)cc(Cl)c3)ccc2OC[C@H](C)NC[C@@H]1C	9.05 µM
O=C(C[C@@H]1CC[C@H]2[C@@H](COC[C@@H](O)CN2C(=O)Nc2ccc(Cl)c(Cl)c2)O1)NCc1ccc(Cl)c(Cl)c1	< 0.5 µM
O=C(C[C@@H]1CC[C@H]2[C@@H](COC[C@@H](O)CN2C(=O)Nc2ccc(C(F)(F)F)cc2)O1)NCCc1ccncc1	4.89 µM
O=C(C[C@@H]1CC[C@@H]2[C@H](COC[C@H](O)CN2C(=O)Nc2ccc(C(F)(F)F)cc2)O1)NCC1CC1	1.14 µM
C[C@@H]1CN([C@H](C)CO)S(=O)(=O)c2ccc(C#CCC3CCCC3)cc2O[C@H]1CN(C)C	16.9 µM
CNC[C@@H]1OCCCC[C@H](C)Oc2ccc(NC(=O)Nc3ccc(C(F)(F)F)cc3)cc2C(=O)N([C@H](C)CO)C[C@@H]1C	19.2 µM
O=C(C[C@@H]1CC[C@@H]2[C@H](COC[C@@H](O)CN2C(=O)Nc2ccc(Cl)c(Cl)c2)O1)NCc1ccc(Cl)cc1	0.98 µM
